Results: patent publication US10231985B2, “Compounds and compositions comprising such compounds for the prevention or treatment of dyslipidaemias” (CENTRE NATIONAL DE LA RECHERCHE SCIENTIFIQUE, priority 2013, dated 2019)

Columns and labels:
[1] = tested on: BRIN-BD11 pancreatic β-cells; experiment: Cell viability of palmitic acid-lipointoxicated pancreatic β-cells (propidium iodide, flow cytometry); format: cell-based, rat; conditions: BRIN-BD11, 200 μM palmitic acid
Procedure: (§1) Pancreatic β-cells, BRIN-BD11, were grown under control conditions or in the presence of an exogenous source of saturated fatty acid (200 μM palmitic acid), as described by Dhayal & Morgan (2011), in order to generate lipointoxication conditions, with or without the addition of OAG. A) The proportion of dead cells was estimated in the absence (control) or presence of palmitic acid, for increasing concentrations of OAG. B) eIF2α phosphorylation levels were also analyzed under the various conditions by Western blot, in the presence or absence (Ø) of OAG, and were normalized to total eIF2α.
The lipid species are prepared in ethanol before being complexed with bovine serum albumin (BSA, first depleted of fatty acids) by incubation for 1 hour at 37° C. The palmitic acid stock solution is obtained by adding one volume of ethanol before the whole is heated to 70° C. for homogenization. OAG and LPA solutions are prepared in 100% ethanol at room temperature. For the incubations of mammalian cells, the final BSA and ethanol concentrations in the culture medium are kept at 1% and 0.5% (w/v), respectively.
The rat pancreatic β-cell line (BRIN-BD11) is grown in complete RPMI-1640 medium, containing 11 mM glucose and supplemented with 10% (v/v) fetal calf serum (FCS), 2 mM L-glutamine, 100 U/ml penicillin and 100 μg/ml streptomycin. For each experiment, the cells are first seeded at a density of 0.5×10^5 cells/ml in 6-well plates for 24 hours. Thereafter, the complete medium is replaced by an equivalent lacking FCS but containing the lipid reagents of interest, at the desired concentrations, complexed with BSA. Under the control conditions, identical amounts of BSA and ethanol are then used. […] After incubation on ice for 10 minutes, the samples thus obtained are analyzed by flow cytometry. A Beckman Coulter EPICS XL MCL is used for the quantification, an FL3 channel is used to detect the emissions of the PI intercalated in the DNA, and the analysis is carried out using the EXPO32 ADC software (Applied Cytometry Systems, V 1.1 build 207).

lipase = experiment: Resistance to hydrolytic activity of lipases (thin-layer chromatography); format: in vitro ADME; conditions: 10 U of lipase, 30 minutes, 37° C.
Procedure: OAG (15 μmol) and N,N-diethanololeamide were subjected (+) or not (−) to exposure to 10 U of lipase for 30 minutes at 37° C. Following the incubation, the lipid species were extracted from the samples before being separated by thin-layer chromatography.

[2] = tested on: eIF2α phosphorylation (UPR); experiment: eIF2α phosphorylation by Western blot in lipointoxicated β-cells; format: cell-based, rat; conditions: BRIN-BD11, 200 μM palmitic acid
Procedure: as §1
BRIN-BD11 cells are seeded at a density of 0.5×10^5 cells/ml in T25 flasks for 24 hours. As indicated above, the complete medium is then replaced by an equivalent lacking FCS but containing the lipid reagents of interest. After 6 hours of incubation, total protein is extracted using lysis buffer (20 mM Tris, 150 mM NaCl, 1 mM EDTA and 1% (v/v) Triton-X) containing protease and phosphatase inhibitors. […] The densitometric analysis of the relative abundance of phosphorylated or non-phosphorylated forms of eIF2α protein is carried out with the Fluor-S Multilmager analysis system combined with the Quantity One software (Bio-Rad UK Ltd).

For `CCCCCCCC/C=C\CCCCCCCC(=O)OC[C@H](CO)OC(C)=O` [OAG, 1-oleoyl-2-acetyl-sn-glycerol], the “Apoptosis / proportion of dead cells of pancreatic β-cells” value [1] was “prevents apoptosis”, the Hydrolysis by lipases (lipase) was “unlike OAG” and the “eIF2α phosphorylation level normalized to total eIF2α (UPR intensity)” value [2] was “reduces the UPR”.
